From PubChem BioAssay (NCI)
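Grown in 96-well plates, cells were treated for 48 hours with each compound at five concentrations. Insufficient inhibition: endpoint recorded as highest concentration tested. TGI: total growth inhibition.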

Columns and labels:
Experiment in all cases: inhibition of tumour cell growth, NCI panel, 48 h
LOX IMVI melanoma = test system: LOX IMVI melanoma
COLO 205 colon = test system: COLO 205 colon
OVCAR-5 ovarian = test system: OVCAR-5 ovarian
UO-31 renal = test system: UO-31 renal
HCT-15 colon = test system: HCT-15 colon
SF-295 CNS = test system: SF-295 CNS
M14 melanoma = test system: M14 melanoma
TK-10 renal = test system: TK-10 renal
SNB-19 CNS = test system: SNB-19 CNS
SK-MEL-28 melanoma = test system: SK-MEL-28 melanoma
HL-60(TB) leukemia = test system: HL-60(TB) leukemia
ACHN renal = test system: ACHN renal
A498 renal = test system: A498 renal
OVCAR-8 ovarian = test system: OVCAR-8 ovarian
NCI-H460 lung = test system: NCI-H460 lung
SNB-75 CNS = test system: SNB-75 CNS
NCI-H226 lung = test system: NCI-H226 lung
BT-549 breast = test system: BT-549 breast
SR leukemia = test system: SR leukemia
MDA-MB-231 breast = test system: MDA-MB-231 breast
UACC-257 melanoma = test system: UACC-257 melanoma
DU-145 prostate = test system: DU-145 prostate
MCF7 breast = test system: MCF7 breast
T-47D breast = test system: T-47D breast
HCC-2998 colon = test system: HCC-2998 colon
PC-3 prostate = test system: PC-3 prostate
NCI-H522 lung = test system: NCI-H522 lung
HT29 colon = test system: HT29 colon
786-0 renal = test system: 786-0 renal
KM12 colon = test system: KM12 colon
MDA-N = test system: MDA-N
EKVX NSCLC = test system: EKVX NSCLC
HCT-116 colon = test system: HCT-116 colon
U251 CNS = test system: U251 CNS
MALME-3M melanoma = test system: MALME-3M melanoma
HOP-92 NSCLC = test system: HOP-92 NSCLC
SF-268 CNS = test system: SF-268 CNS
SK-MEL-5 melanoma = test system: SK-MEL-5 melanoma
K-562 leukemia = test system: K-562 leukemia
NCI-H23 lung = test system: NCI-H23 lung
SK-MEL-2 melanoma = test system: SK-MEL-2 melanoma
HS 578T breast = test system: HS 578T breast
RXF 393 renal = test system: RXF 393 renal
SW-620 colon = test system: SW-620 colon
NCI/ADR-RES ovarian = test system: NCI/ADR-RES ovarian
A549 NSCLC = test system: A549 NSCLC
MOLT-4 leukemia = test system: MOLT-4 leukemia
UACC-62 melanoma = test system: UACC-62 melanoma
MDA-MB-435 = test system: MDA-MB-435
IGROV1 ovarian = test system: IGROV1 ovarian
RPMI-8226 leukemia = test system: RPMI-8226 leukemia
SF-539 CNS = test system: SF-539 CNS
CAKI-1 renal = test system: CAKI-1 renal
HOP-62 NSCLC = test system: HOP-62 NSCLC
SK-OV-3 ovarian = test system: SK-OV-3 ovarian
SN12C renal = test system: SN12C renal
OVCAR-4 ovarian = test system: OVCAR-4 ovarian
OVCAR-3 ovarian = test system: OVCAR-3 ovarian
CCRF-CEM leukemia = test system: CCRF-CEM leukemia

Question: Which TGI (LOX IMVI melanoma) does the source give for `OC(COc1cccc2ccccc12)CN1CCOCC1` (centres undefined) here?
Answer: Its TGI is greater than 100 µM.

Question: What about the TGI (COLO 205 colon) of the same molecule?
Answer: The TGI was greater than 100 µM.

Question: What about the TGI (OVCAR-5 ovarian) of the same molecule?
Answer: Its TGI is greater than 100 µM.

Question: What about the TGI (UO-31 renal) of the same molecule?
Answer: The TGI was greater than 100 µM.

Question: What about the TGI (HCT-15 colon) of the same molecule?
Answer: Its TGI is greater than 100 µM.

Question: And the TGI (SF-295 CNS)?
Answer: Its TGI is greater than 100 µM.

Question: What about the TGI (M14 melanoma) of the same molecule?
Answer: The TGI was greater than 100 µM.

Question: What about the TGI (TK-10 renal) of the same molecule?
Answer: The TGI was greater than 100 µM.

Question: What about the TGI (SNB-19 CNS) of the same molecule?
Answer: The TGI was greater than 100 µM.

Question: And the TGI (SK-MEL-28 melanoma)?
Answer: The TGI was greater than 100 µM.

Question: And the TGI (HL-60(TB) leukemia)?
Answer: The TGI was greater than 100 µM.

Question: What about the TGI (ACHN renal) of the same molecule?
Answer: The TGI was greater than 100 µM.

Question: And the TGI (A498 renal)?
Answer: Its TGI is greater than 100 µM.

Question: And the TGI (OVCAR-8 ovarian)?
Answer: Its TGI is greater than 100 µM.

Question: What about the TGI (NCI-H460 lung) of the same molecule?
Answer: Its TGI is greater than 100 µM.

Question: What about the TGI (SNB-75 CNS) of the same molecule?
Answer: Its TGI is greater than 100 µM.

Question: And the TGI (NCI-H226 lung)?
Answer: The TGI was greater than 100 µM.

Question: And the TGI (BT-549 breast)?
Answer: Its TGI is greater than 100 µM.

Question: And the TGI (SR leukemia)?
Answer: Its TGI is greater than 100 µM.

Question: What about the TGI (MDA-MB-231 breast) of the same molecule?
Answer: The TGI was greater than 100 µM.

Question: What about the TGI (UACC-257 melanoma) of the same molecule?
Answer: Its TGI is greater than 100 µM.

Question: And the TGI (DU-145 prostate)?
Answer: Its TGI is greater than 100 µM.

Question: What about the TGI (MCF7 breast) of the same molecule?
Answer: The TGI was greater than 100 µM.

Question: What about the TGI (T-47D breast) of the same molecule?
Answer: The TGI was greater than 100 µM.

Question: And the TGI (HCC-2998 colon)?
Answer: Its TGI is greater than 100 µM.

Question: What about the TGI (PC-3 prostate) of the same molecule?
Answer: Its TGI is greater than 100 µM.

Question: And the TGI (NCI-H522 lung)?
Answer: Its TGI is greater than 100 µM.

Question: And the TGI (HT29 colon)?
Answer: Its TGI is greater than 100 µM.

Question: What about the TGI (786-0 renal) of the same molecule?
Answer: Its TGI is greater than 100 µM.

Question: And the TGI (KM12 colon)?
Answer: The TGI was greater than 100 µM.

Question: And the TGI (MDA-N)?
Answer: Its TGI is greater than 100 µM.

Question: What about the TGI (EKVX NSCLC) of the same molecule?
Answer: The TGI was greater than 100 µM.

Question: What about the TGI (HCT-116 colon) of the same molecule?
Answer: Its TGI is greater than 100 µM.

Question: What about the TGI (U251 CNS) of the same molecule?
Answer: Its TGI is greater than 100 µM.

Question: And the TGI (MALME-3M melanoma)?
Answer: The TGI was greater than 100 µM.

Question: And the TGI (HOP-92 NSCLC)?
Answer: The TGI was 98.9 µM.

Question: What about the TGI (SF-268 CNS) of the same molecule?
Answer: Its TGI is greater than 100 µM.

Question: And the TGI (SK-MEL-5 melanoma)?
Answer: Its TGI is greater than 100 µM.

Question: What about the TGI (K-562 leukemia) of the same molecule?
Answer: Its TGI is greater than 100 µM.

Question: And the TGI (NCI-H23 lung)?
Answer: The TGI was greater than 100 µM.

Question: And the TGI (SK-MEL-2 melanoma)?
Answer: Its TGI is greater than 100 µM.

Question: What about the TGI (HS 578T breast) of the same molecule?
Answer: The TGI was greater than 100 µM.

Question: And the TGI (RXF 393 renal)?
Answer: Its TGI is greater than 100 µM.

Question: What about the TGI (SW-620 colon) of the same molecule?
Answer: The TGI was greater than 100 µM.

Question: And the TGI (NCI/ADR-RES ovarian)?
Answer: The TGI was greater than 100 µM.

Question: And the TGI (A549 NSCLC)?
Answer: Its TGI is greater than 100 µM.

Question: And the TGI (MOLT-4 leukemia)?
Answer: The TGI was greater than 100 µM.

Question: And the TGI (UACC-62 melanoma)?
Answer: The TGI was greater than 100 µM.

Question: And the TGI (MDA-MB-435)?
Answer: Its TGI is greater than 100 µM.

Question: What about the TGI (IGROV1 ovarian) of the same molecule?
Answer: Its TGI is greater than 100 µM.

Question: What about the TGI (RPMI-8226 leukemia) of the same molecule?
Answer: The TGI was greater than 100 µM.

Question: What about the TGI (SF-539 CNS) of the same molecule?
Answer: The TGI was greater than 100 µM.

Question: And the TGI (CAKI-1 renal)?
Answer: The TGI was greater than 100 µM.

Question: And the TGI (HOP-62 NSCLC)?
Answer: Its TGI is greater than 100 µM.

Question: What about the TGI (SK-OV-3 ovarian) of the same molecule?
Answer: The TGI was greater than 100 µM.

Question: And the TGI (SN12C renal)?
Answer: Its TGI is greater than 100 µM.

Question: And the TGI (OVCAR-4 ovarian)?
Answer: Its TGI is greater than 100 µM.

Question: What about the TGI (OVCAR-3 ovarian) of the same molecule?
Answer: The TGI was greater than 100 µM.

Question: What about the TGI (CCRF-CEM leukemia) of the same molecule?
Answer: The TGI was greater than 100 µM.
